{"source": "patent US20240286999A1", "about": "“AZABICYCLO[3.1.0]HEXANE COMPOUND” (OTSUKA PHARMACEUTICAL CO., LTD., priority 2021, published 2024)", "origin": "cited, not measured here", "key": {"dopamine reuptake (DA)": {"test_system": "dopamine reuptake (DA)", "settings": "relative to NE reuptake"}, "[1]": {"test_system": "serotonin reuptake (5-HT)", "settings": "relative to NE reuptake"}, "[2]": {"test_system": "norepinephrine reuptake (NE)", "settings": "ranking among NE, DA and 5-HT reuptake"}}, "data": [{"smiles": "c1ccc2cc([C@]34CNC[C@H]3C4)ccc2c1", "note": "[(1R,5S)-1-(naphthalen-2-yl)-3-azabicyclo[3.1.0]hexane]", "values": [{"measurement": "effectiveness against dopamine reuptake (DA) relative to norepinephrine reuptake", "setting": "dopamine reuptake (DA)", "result": "one-sixth as effective"}, {"measurement": "effectiveness against serotonin reuptake (5-HT) relative to norepinephrine reuptake", "setting": "[1]", "result": "one-fourteenth as effective"}, {"measurement": "effectiveness against norepinephrine reuptake (NE)", "setting": "[2]", "result": "most effective"}]}]}
